# Results: US20080194545A1, “ANTIMICROBIAL COMPOSITIONS AND METHODS OF USE” (TRIUS THERAPEUTICS, priority 2007, published 2008)
# Columns and labels:
# S. aureus = assay: Antibacterial activity, minimal inhibitory concentration (MIC) against S. aureus; type: cell-based; conditions: Staphylococcus aureus
# Excerpt: Antibacterial activity as measured by the minimal inhibitory concentrations (MIC) and minimal bactericidal concentrations of compounds are well known (see., e.g., National Committee for Clinical Laboratory Standards 2000 Performance standards for antimicrobial disk susceptibility tests: approved standard, 7th ed. M2-A7, vol. 20, no. 1, Committee for Clinical Laboratory Standards, Wayne, Pa.)
# In vitro testing for antibacterial activity may be accomplished through use of a whole-cell bacterial growth inhibition assay. For example, an […] assay identifies a substance that inhibits bacterial growth. Microtiter plates are prepared with serial dilutions of the test compound, adding to the preparation a given amount of growth substrate, and providing a preparation of bacteria. Inhibition of bacterial growth is determined, for example, by observing changes in optical densities of the bacterial cultures. Inhibition of bacterial growth is determined, for example, by comparing (in the presence and absence of a test compound) the rate of growth or the absolute growth of bacterial cells. Inhibition includes a reduction of one of the above measurements by at least 20%.
# S. Aureus MetRS = S. Aureus MetRS (Staphylococcus aureus, UniProt Q5HII6); assay: MetRS inhibition (coupling of radiolabeled methionine to tRNAMet, TCA-precipitable counts); type: biochemical; conditions: purified MetRS enzyme
# Chain of S. Aureus MetRS (Q5HII6 whole entry): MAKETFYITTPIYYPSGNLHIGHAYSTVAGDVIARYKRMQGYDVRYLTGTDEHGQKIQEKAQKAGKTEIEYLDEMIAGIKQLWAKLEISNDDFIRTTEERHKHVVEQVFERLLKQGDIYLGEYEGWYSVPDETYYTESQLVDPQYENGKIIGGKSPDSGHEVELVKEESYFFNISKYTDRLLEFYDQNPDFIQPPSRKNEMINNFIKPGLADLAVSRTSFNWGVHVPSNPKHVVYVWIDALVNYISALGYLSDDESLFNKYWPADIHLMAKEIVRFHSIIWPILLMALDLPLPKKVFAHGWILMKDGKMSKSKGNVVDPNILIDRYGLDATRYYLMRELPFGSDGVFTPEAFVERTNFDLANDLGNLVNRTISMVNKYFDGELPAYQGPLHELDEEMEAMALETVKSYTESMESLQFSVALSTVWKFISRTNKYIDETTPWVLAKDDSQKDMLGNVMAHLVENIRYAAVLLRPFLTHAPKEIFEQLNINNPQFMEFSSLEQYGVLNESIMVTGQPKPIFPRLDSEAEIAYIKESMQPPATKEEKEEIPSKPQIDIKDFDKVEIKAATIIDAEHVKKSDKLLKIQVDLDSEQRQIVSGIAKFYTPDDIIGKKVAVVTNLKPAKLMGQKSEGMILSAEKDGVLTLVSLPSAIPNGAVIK
# Excerpt: The inhibition of MetRS activity may be monitored through use of in vitro bio-chemical assays through use of purified MetRS protein. Synthesis of a MetRS polypeptide can readily be accomplished through use of any of the various art-known techniques. For instance, a MetRS polypeptide can be synthesized chemically in vitro or recombinant DNA methods which are well known to those skilled in the art can be used to construct expression vectors containing MetRS coding sequences, and appropriate transcriptional/translational control signals. These methods include, for example, in vitro recombinant DNA techniques, synthetic techniques and in vivo recombination/genetic recombination. Alternatively, RNA capable of encoding target gene protein sequences can be chemically synthesized through use of synthesizers, for example.
# The compounds of the present invention may also be evaluated for the ability to inhibit MetRS activity through use of known methods that measure the MetRS-dependent coupling of methionine to its cognate tRNA. In the assay, radiolabeled methionine, tRNA^Met and purified MetRS enzyme are incubated under appropriate conditions in the presence and absence of test compound and the amount of TCA-precipitable counts, which reflects the amount of methionine coupled to tRNA^Met, is determined.
Structure (SMILES),MIC (S. aureus),IC50 (S. Aureus MetRS)
COc1ccc(Oc2cc(N3CCOCC3)nc(NCc3nc4ccccc4[nH]3)n2)c(Cl)c1 [Compound 5.07],≤ 8 µg/mL,< 50 nM
COc1ccc(Oc2cc(N(C)C)nc(NCc3nc4ccccc4[nH]3)n2)c(Cl)c1 [Compound 5.10],≤ 8 µg/mL,< 50 nM
COc1ccc(Oc2cc(N3CC(C)NC(C)C3)nc(NCc3nc4ccccc4[nH]3)n2)c(Cl)c1 (centres unmarked) [Compound 5.26],≤ 8 µg/mL,< 50 nM
CC1CN(c2cc(Oc3ccc(Cl)cc3Cl)nc(NCc3nc4ccccc4[nH]3)n2)CC(C)N1 (centres unmarked) [Compound 5.28],≤ 8 µg/mL,< 50 nM
COc1ccc(Oc2cc(N3CCC(O)C3)nc(NCc3nc4ccccc4[nH]3)n2)c(Cl)c1 (centres unmarked) [Compound 5.35],≤ 8 µg/mL,–
O=C1CN(c2cc(Oc3ccc(Cl)cc3Cl)nc(NCc3nc4ccccc4[nH]3)n2)CCN1 [Compound 5.37],≤ 8 µg/mL,< 50 nM
COc1ccc(Oc2cc(N3CCN(C(=O)c4ccco4)CC3)nc(NCc3nc4ccccc4[nH]3)n2)c(Cl)c1 [Compound 5.50],≤ 8 µg/mL,< 50 nM
COc1ccc(Oc2cc(N3CCCC3CO)nc(NCc3nc4ccccc4[nH]3)n2)c(Cl)c1 (centres unmarked) [Compound 5.51],≤ 8 µg/mL,< 50 nM
COc1ccc(Oc2cc(-n3cnc(C)c3)nc(NCc3nc4ccccc4[nH]3)n2)c(Cl)c1 [Compound 5.53],≤ 8 µg/mL,–
COc1ccc(Oc2cc(N3CCN(c4ncccn4)CC3)nc(NCc3nc4ccccc4[nH]3)n2)c(Cl)c1 [Compound 5.70],≤ 8 µg/mL,< 50 nM
COc1ccc(Oc2cc(NNc3cc(=O)c4ccccc4[nH]3)nc(N(C)C)n2)c(Cl)c1 [Compound 6.06],≤ 8 µg/mL,< 50 nM
COc1ccc(Oc2cc(NCc3nc4ccccc4[nH]3)nc(N3CCN(C(C)=O)CC3)n2)c(Cl)c1 [Compound 6.19],≤ 8 µg/mL,< 50 nM
O=C1CN(c2nc(NCc3nc4ccccc4[nH]3)cc(Oc3ccc(Cl)cc3Cl)n2)CCN1 [Compound 6.23],≤ 8 µg/mL,< 50 nM
COc1ccc(Oc2cc(NCc3nc4ccccc4[nH]3)nc(N3CCNC(=O)C3)n2)c(Cl)c1 [Compound 6.30],≤ 8 µg/mL,< 50 nM
COc1ccc(Oc2cc(NCc3nc4ccccc4[nH]3)nc(N3CCN(c4ncccn4)CC3)n2)c(Cl)c1 [Compound 6.45],≤ 8 µg/mL,< 50 nM
COc1ccc(Oc2cc(NCc3nc4ccccc4[nH]3)nc(N3CCN(C(=O)C4CC4)CC3)n2)c(Cl)c1 [Compound 6.48],≤ 8 µg/mL,< 50 nM
COc1ccc(Oc2cc(NCc3nc4ccccc4[nH]3)nc(N3CCN(C(=O)N(C)C)CC3)n2)c(Cl)c1 [Compound 6.49],≤ 8 µg/mL,< 50 nM
COc1cc(Cl)c(Oc2cc(NCc3nc4ccccc4[nH]3)nc(N3CCN(C(C)=O)CC3)n2)cc1OC [Compound 6.55],≤ 8 µg/mL,< 50 nM
COc1cc(Cl)c(Oc2cc(NCc3nc4ccccc4[nH]3)nc(N3CCNC(=O)C3)n2)cc1OC [Compound 6.56],≤ 8 µg/mL,< 50 nM
COc1ccc(Oc2cc(NCc3nc4ccccc4[nH]3)nc(N3CCN(C(=O)C4CCCO4)CC3)n2)c(Cl)c1 (centres unmarked) [Compound 6.61],≤ 8 µg/mL,< 50 nM
CCN(C(C)=O)C1CCN(c2nc(NCc3nc4ccccc4[nH]3)cc(Oc3ccc(OC)cc3Cl)n2)C1 (centres unmarked) [Compound 6.62],≤ 8 µg/mL,< 50 nM
COc1cc(Cl)c(Oc2cc(NCc3nc4ccccc4[nH]3)nc(N3CCCN(C(C)=O)CC3)n2)cc1OC [Compound 6.63],≤ 8 µg/mL,< 50 nM

Structure (SMILES),MIC (S. aureus),IC50 (S. Aureus MetRS)
COc1cc(Cl)c(Oc2cc(NCc3nc4ccccc4[nH]3)nc(N(C)C)n2)cc1OC [Compound 6.83],≤ 8 µg/mL,< 50 nM
COc1cc(Cl)c(Oc2cc(NCc3nc4ccccc4[nH]3)nc(N3CCOCC3)n2)cc1OC [Compound 6.86],≤ 8 µg/mL,< 50 nM
COc1cc(Cl)c(Oc2cc(NCc3nc4ccccc4[nH]3)nc(N3CCN(C(=O)C4CC4)CC3)n2)cc1OC [Compound 6.88],≤ 8 µg/mL,< 50 nM
COc1cc(Cl)c(Oc2cc(NCc3nc4ccccc4[nH]3)nc(N3CCN(C(=O)N(C)C)CC3)n2)cc1OC [Compound 6.89],≤ 8 µg/mL,< 50 nM
COc1cc(Cl)c(Oc2cc(NCc3nc4ccccc4[nH]3)nc(N3CCN(c4ncccn4)CC3)n2)cc1OC [Compound 6.90],≤ 8 µg/mL,< 50 nM
COc1cc(Cl)c(Oc2cc(NCc3nc4ccccc4[nH]3)nc(N3CCN(c4ccccn4)CC3)n2)cc1OC [Compound 6.91],≤ 8 µg/mL,< 50 nM
COc1cc(Cl)c(Oc2cc(NCc3nc4ccccc4[nH]3)nc(N3CCN(c4cnccn4)CC3)n2)cc1OC [Compound 6.93],≤ 8 µg/mL,< 50 nM
COc1cc(Cl)c(Oc2cc(NCc3nc4ccccc4[nH]3)nc(N3CCN(CCCN4CCOCC4)CC3)n2)cc1OC [Compound 6.94],≤ 8 µg/mL,< 50 nM
COc1cc(Cl)c(Oc2cc(NCc3nc4ccccc4[nH]3)nc(N3CCN(c4ccncc4)CC3)n2)cc1OC [Compound 6.95],≤ 8 µg/mL,< 50 nM
COc1ccnc(N2CCN(c3nc(NCc4nc5ccccc5[nH]4)cc(Oc4cc(OC)c(OC)cc4Cl)n3)CC2)n1 [Compound 6.96],≤ 8 µg/mL,< 50 nM
COc1cc(Cl)c(Oc2cc(NCc3nc4ccccc4[nH]3)nc(N3CCN(c4ncncn4)CC3)n2)cc1OC [Compound 6.105],≤ 8 µg/mL,< 50 nM
COc1cc(Cl)c(Oc2cc(NCc3nc4ccccc4[nH]3)nc(N3CCN(c4nccs4)CC3)n2)cc1OC [Compound 6.107],≤ 8 µg/mL,< 50 nM
COc1cc(Cl)c(Oc2cc(NCc3nc4ccccc4[nH]3)nc(N3CCN(CCn4ccnc4)CC3)n2)cc1OC [Compound 6.113],≤ 8 µg/mL,< 50 nM
COc1cc(Cl)c(Oc2cc(NCc3nc4ccccc4[nH]3)nc(N3CCN(C(=O)CNc4nccs4)CC3)n2)cc1OC [Compound 6.126],≤ 8 µg/mL,< 50 nM
COc1cc(Cl)c(Oc2cc(NCc3nc4ccccc4[nH]3)nc(N3CCN(C(=O)N4CCOCC4)CC3)n2)cc1OC [Compound 6.134],≤ 8 µg/mL,< 50 nM
COc1cc(Cl)c(Oc2cc(NCc3nc4ccccc4[nH]3)nc(N3CCC(N4CCOCC4)CC3)n2)cc1OC [Compound 6.138],≤ 8 µg/mL,< 50 nM
COc1cc(Cl)c(Oc2cc(NCc3nc4ccccc4[nH]3)nc(N3CCN(CCN4CCOCC4)CC3)n2)cc1OC [Compound 6.140],≤ 8 µg/mL,< 50 nM
COc1cc(Cl)c(Oc2cc(NCc3nc4ccccc4[nH]3)nc(N3CCN(CCN4CCCC4)CC3)n2)cc1OC [Compound 6.142],≤ 8 µg/mL,< 50 nM
COc1cc(Cl)c(Oc2cc(NCc3nc4ccccc4[nH]3)nc(N3CCN(Cn4ccnc4C)CC3)n2)cc1OC [Compound 6.143],≤ 8 µg/mL,< 50 nM
COc1cc(Cl)c(Oc2cc(NCc3nc4ccccc4[nH]3)nc(N3CCN(C(=O)N4CCCC4)CC3)n2)cc1OC [Compound 6.144],≤ 8 µg/mL,< 50 nM
COc1cc(Cl)c(Oc2cc(NCc3nc4ccccc4[nH]3)nc(N3CCC(CN4CCCC4=O)CC3)n2)cc1OC [Compound 6.145],≤ 8 µg/mL,< 50 nM
CC(=O)N1CCN(c2nc(NCc3nc4ccccc4[nH]3)cc(Oc3ccc4ncccc4c3Cl)n2)CC1 [Compound 6.150],≤ 8 µg/mL,< 50 nM
